Results from patent US20230310428A1, “EGFR INHIBITOR AND PREPARATION METHOD AND USE THEREOF” (HONGYUN BIOTECH CO., LTD., priority 2020, published 2023).

How the values were obtained:
Test in all cases: Growth inhibitory activity of compounds on BaF3 cell lines stably transfected with kinase (MTS, 48 h)
Type in all cases: cell-based
[1] = target: T1, various mutants of kinase EGFR (BaF3 cell lines stably transfected with kinase) (Homo sapiens, UniProt P00533); settings: BaF3 cell line stably transfected with EGFR Δ19Del, read-out: Δ19Del growth inhibitory activity IC50
T1 construct: other: BaF3 cells stably transfected with EGFR Δ19Del; MTS, 48 h; other: BaF3 cell line stably transfected with EGFR Δ19Del
T1 sequence (P00533 with tags, fused parts or gaps DEL746-750): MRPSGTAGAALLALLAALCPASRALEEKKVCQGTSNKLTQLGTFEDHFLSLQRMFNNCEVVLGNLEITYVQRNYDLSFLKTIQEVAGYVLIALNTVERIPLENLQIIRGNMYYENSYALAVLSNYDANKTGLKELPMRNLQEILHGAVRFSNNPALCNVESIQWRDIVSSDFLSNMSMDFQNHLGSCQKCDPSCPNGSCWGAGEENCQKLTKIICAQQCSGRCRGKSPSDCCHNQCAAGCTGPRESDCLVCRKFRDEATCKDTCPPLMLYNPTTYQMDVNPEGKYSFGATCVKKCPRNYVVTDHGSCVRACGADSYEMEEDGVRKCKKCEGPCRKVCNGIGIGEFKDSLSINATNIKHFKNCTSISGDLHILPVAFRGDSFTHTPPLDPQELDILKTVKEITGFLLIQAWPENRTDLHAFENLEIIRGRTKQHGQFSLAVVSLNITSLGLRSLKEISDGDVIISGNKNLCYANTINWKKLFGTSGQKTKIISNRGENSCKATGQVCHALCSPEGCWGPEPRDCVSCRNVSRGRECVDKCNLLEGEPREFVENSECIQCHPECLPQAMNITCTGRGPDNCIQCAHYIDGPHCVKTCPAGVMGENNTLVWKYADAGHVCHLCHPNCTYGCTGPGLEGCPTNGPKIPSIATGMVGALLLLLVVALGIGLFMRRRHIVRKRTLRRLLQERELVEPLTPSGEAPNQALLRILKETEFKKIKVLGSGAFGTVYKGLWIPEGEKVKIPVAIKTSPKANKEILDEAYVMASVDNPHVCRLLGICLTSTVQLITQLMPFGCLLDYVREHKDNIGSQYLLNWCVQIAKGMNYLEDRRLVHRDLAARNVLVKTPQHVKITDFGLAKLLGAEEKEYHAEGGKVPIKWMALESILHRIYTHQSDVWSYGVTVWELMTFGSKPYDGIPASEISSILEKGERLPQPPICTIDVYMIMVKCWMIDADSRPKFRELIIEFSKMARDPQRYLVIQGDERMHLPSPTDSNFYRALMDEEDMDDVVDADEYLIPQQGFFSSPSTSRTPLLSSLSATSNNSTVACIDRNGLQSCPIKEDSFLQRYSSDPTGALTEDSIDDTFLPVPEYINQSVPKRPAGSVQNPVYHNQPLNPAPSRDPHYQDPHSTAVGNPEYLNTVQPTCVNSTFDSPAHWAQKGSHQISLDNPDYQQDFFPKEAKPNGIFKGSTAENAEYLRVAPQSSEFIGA
Outline: (§1)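 BaF3 cells stably transfected with EGFR mutants were exposed for 48 h at 37°C to 8 compound concentrations (top 10 µM, 1/3 dilutions, 0.1% DMSO). Growth was read by MTS at 490 nm after 1-4 h, in duplicate; IC50 was derived from inhibition rates versus DMSO control.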

[2] = target: T2, various mutants of kinase EGFR (BaF3 cell lines stably transfected with kinase) (Homo sapiens, UniProt P00533, L858R/T790M); settings: BaF3 cell line stably transfected with EGFR L858R/T790M, read-out: L858R/ T790M growth inhibitory activity IC50
T2 construct: expressed in transfected cells; host or cells: BaF3
Outline: as §1

[3] = target: T3, various mutants of kinase EGFR (BaF3 cell lines stably transfected with kinase) (Homo sapiens, UniProt P00533, C797S/L858R/T790M); settings: BaF3 cell line stably transfected with EGFR L858R/T790M/C797S, read-out: L858R/T790M/ C797S growth inhibitory activity IC50
T3 construct: expressed in transfected cells; host or cells: BaF3
Outline: as §1

[4] = target: T4, various mutants of kinase EGFR (BaF3 cell lines stably transfected with kinase) (Homo sapiens, UniProt P00533, T790M/C797S, form not given); settings: BaF3 cell line stably transfected with EGFR Δ19Del/T790M/C797S, read-out: Δ19Del/T790M/ C797S growth inhibitory activity IC50
T4 construct: other: BaF3 cells stably transfected with EGFR Δ19Del/T790M/C797S; MTS, 48; other: BaF3 cell line stably transfected with EGFR Δ19Del/T790M/C7
T4 sequence (P00533 with tags, fused parts or gaps DEL746-750/T790M/C797S, form open): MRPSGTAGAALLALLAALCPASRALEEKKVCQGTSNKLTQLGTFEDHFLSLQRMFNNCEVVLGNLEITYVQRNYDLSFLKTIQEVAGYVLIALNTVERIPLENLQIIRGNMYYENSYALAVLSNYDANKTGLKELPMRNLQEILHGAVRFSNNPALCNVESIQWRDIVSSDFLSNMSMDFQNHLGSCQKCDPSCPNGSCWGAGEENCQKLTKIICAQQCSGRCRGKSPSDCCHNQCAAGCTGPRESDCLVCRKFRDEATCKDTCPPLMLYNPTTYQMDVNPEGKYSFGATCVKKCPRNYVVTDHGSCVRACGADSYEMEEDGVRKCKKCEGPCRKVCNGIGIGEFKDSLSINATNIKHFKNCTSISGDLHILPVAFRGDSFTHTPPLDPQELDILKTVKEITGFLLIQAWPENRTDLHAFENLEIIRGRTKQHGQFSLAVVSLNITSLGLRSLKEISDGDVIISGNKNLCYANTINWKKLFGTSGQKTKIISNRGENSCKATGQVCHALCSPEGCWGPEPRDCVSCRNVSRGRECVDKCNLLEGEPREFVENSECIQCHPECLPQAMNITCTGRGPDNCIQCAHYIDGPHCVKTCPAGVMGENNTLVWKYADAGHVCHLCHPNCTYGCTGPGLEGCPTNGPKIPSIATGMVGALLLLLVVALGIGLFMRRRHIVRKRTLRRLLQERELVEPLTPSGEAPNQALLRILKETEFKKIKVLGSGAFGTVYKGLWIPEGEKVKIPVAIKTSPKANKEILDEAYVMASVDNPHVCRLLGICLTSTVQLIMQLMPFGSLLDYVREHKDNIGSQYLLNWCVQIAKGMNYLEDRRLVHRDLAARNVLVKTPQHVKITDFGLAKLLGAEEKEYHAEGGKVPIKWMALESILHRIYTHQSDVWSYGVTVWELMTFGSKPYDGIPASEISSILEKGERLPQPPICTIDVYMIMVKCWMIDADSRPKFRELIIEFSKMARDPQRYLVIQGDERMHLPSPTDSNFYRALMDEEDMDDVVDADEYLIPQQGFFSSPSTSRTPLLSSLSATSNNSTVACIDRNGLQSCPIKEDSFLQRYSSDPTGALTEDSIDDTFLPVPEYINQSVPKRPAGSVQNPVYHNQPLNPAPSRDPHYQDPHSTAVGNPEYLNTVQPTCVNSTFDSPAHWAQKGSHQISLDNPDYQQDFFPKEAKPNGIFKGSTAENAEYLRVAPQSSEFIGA
Outline: as §1

[5] = target: T5, various mutants of kinase EGFR (BaF3 cell lines stably transfected with kinase) (Homo sapiens, UniProt P00533, L858R); settings: BaF3 cell line stably transfected with EGFR L858R, read-out: L858R growth inhibitory activity IC50
T5 construct: expressed in transfected cells; host or cells: BaF3
T5 sequence (P00533 25-1210 L858R): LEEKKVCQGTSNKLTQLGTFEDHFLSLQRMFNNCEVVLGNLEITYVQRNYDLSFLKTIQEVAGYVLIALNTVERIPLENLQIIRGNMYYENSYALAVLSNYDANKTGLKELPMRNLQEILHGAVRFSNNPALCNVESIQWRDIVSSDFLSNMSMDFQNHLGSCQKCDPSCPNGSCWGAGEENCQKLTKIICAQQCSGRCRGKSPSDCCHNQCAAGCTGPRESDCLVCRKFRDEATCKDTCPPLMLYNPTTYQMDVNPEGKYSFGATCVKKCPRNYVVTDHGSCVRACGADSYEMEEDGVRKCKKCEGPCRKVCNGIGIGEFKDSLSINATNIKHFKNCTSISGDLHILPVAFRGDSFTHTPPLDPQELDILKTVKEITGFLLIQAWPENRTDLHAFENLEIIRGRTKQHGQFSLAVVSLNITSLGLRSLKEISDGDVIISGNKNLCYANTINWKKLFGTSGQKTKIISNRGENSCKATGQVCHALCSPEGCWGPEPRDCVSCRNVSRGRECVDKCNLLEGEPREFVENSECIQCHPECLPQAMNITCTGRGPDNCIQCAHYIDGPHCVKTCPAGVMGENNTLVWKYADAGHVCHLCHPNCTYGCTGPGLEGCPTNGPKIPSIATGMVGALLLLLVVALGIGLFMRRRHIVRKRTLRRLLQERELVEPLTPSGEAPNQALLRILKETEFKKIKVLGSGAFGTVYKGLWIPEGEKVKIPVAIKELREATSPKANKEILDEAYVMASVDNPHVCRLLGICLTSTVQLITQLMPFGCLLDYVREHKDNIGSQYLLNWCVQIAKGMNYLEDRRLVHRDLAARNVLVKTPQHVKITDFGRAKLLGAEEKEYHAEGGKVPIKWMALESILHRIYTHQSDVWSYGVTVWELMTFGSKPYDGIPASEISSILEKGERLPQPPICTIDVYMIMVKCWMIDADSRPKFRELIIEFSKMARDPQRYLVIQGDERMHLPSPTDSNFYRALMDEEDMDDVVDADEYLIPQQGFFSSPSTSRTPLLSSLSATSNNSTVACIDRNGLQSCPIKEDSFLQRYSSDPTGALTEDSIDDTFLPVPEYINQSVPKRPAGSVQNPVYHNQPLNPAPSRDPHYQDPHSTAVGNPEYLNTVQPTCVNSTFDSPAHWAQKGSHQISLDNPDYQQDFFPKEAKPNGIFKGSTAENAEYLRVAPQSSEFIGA
Outline: as §1

[6] = target: T6, various mutants of kinase EGFR (BaF3 cell lines stably transfected with kinase) (Homo sapiens, UniProt P00533, T790M, form not given); settings: BaF3 cell line stably transfected with EGFR Δ19Del/T790M, read-out: Δ19Del/ T790M growth inhibitory activity IC50
T6 construct: other: BaF3 cells stably transfected with EGFR Δ19Del/T790M; MTS, 48 h; other: BaF3 cell line stably transfected with EGFR Δ19Del/T790M; MTS, 48
T6 sequence (P00533 with tags, fused parts or gaps DEL746-750/T790M, form open): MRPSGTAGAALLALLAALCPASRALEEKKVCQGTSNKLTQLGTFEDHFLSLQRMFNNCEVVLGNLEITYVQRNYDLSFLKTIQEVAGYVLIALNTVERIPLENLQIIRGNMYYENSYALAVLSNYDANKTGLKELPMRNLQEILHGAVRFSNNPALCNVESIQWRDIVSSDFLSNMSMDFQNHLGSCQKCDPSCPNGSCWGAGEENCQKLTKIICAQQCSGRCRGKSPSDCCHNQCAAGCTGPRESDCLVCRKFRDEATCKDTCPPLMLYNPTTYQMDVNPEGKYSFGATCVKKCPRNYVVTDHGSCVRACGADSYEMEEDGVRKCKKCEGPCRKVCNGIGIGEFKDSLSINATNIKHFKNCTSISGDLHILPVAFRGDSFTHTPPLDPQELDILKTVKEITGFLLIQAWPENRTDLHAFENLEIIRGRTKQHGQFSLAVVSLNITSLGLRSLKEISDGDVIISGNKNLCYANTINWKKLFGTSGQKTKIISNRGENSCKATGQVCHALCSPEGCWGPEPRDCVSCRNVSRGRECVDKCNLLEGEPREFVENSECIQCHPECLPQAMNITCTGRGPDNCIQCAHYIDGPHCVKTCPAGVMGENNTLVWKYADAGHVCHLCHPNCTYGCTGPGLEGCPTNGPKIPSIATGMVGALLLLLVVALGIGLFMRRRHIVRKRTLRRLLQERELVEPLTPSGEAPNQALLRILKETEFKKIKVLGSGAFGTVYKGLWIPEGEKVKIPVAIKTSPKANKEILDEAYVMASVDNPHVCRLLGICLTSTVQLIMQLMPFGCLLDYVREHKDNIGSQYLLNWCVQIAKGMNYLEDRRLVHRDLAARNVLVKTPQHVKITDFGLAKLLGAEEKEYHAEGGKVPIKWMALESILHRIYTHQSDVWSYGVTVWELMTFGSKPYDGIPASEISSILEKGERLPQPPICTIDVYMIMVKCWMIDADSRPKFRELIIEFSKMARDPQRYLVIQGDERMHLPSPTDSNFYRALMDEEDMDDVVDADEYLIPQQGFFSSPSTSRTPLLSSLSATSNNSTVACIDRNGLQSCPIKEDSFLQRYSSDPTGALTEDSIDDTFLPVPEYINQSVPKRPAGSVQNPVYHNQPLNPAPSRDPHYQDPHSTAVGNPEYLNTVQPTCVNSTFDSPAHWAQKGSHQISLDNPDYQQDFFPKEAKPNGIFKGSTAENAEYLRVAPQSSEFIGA
Outline: as §1

IC50 [1]	IC50 [2]	IC50 [3]	IC50 [4]	IC50 [5]	IC50 [6]	SMILES
500 to 2500 nM	500 to 2500 nM	50 to 500 nM	50 to 500 nM	500 to 2500 nM	500 to 2500 nM	CCc1cc(Nc2nc(Nc3ccc4nccnc4c3N(C)S(C)(=O)=O)c3sccc3n2)c(OC)cc1N1CCN(C)CC1 [II-1-15]
500 to 2500 nM	50 to 500 nM	50 to 500 nM	≤ 50 nM	50 to 500 nM	50 to 500 nM	CCc1cc(Nc2nc(Nc3ccc4nccnc4c3N(C)S(C)(=O)=O)c3sccc3n2)c(OC)cc1N1CCC(N(C)C)CC1 [II-1-16]
50 to 500 nM	50 to 500 nM	50 to 500 nM	50 to 500 nM	50 to 500 nM	50 to 500 nM	CCc1cc(Nc2nc(Nc3ccc4nccnc4c3N(C)S(C)(=O)=O)c3sccc3n2)c(OC)cc1N1CCC(N(C)C)C1 (stereo not drawn) [II-1-17]
500 to 2500 nM	50 to 500 nM	500 to 2500 nM	500 to 2500 nM	500 to 2500 nM	500 to 2500 nM	COc1cc(N2CCC(N3CCN(C)CC3)CC2)c(C)cc1Nc1nc(Nc2ccc3nccnc3c2N(C)S(C)(=O)=O)c2[nH]ccc2n1 [II-1-19]
500 to 2500 nM	50 to 500 nM	500 to 2500 nM	50 to 500 nM	50 to 500 nM	500 to 2500 nM	CCc1cc(Nc2nc(Nc3ccc4nccnc4c3N(C)S(C)(=O)=O)c3[nH]ccc3n2)c(OC)cc1N1CCC(N2CCN(C)CC2)CC1 [II-1-20]
50 to 500 nM	500 to 2500 nM	50 to 500 nM	50 to 500 nM	50 to 500 nM	50 to 500 nM	CCc1cc(Nc2nc(Nc3ccc4nccnc4c3N(C)S(C)(=O)=O)c3[nH]ccc3n2)c(OC)nc1N1CCC(N2CCN(C)CC2)CC1 [II-1-21]
50 to 500 nM	50 to 500 nM	50 to 500 nM	50 to 500 nM	500 to 2500 nM	50 to 500 nM	CCc1cc(Nc2nc(Nc3ccc4nccnc4c3N(C)S(C)(=O)=O)c3[nH]ccc3n2)c(OC(F)(F)F)cc1N1CCC(N2CCN(C)CC2)CC1 [II-1-22]
50 to 500 nM	50 to 500 nM	50 to 500 nM	≤ 50 nM	50 to 500 nM	50 to 500 nM	C=Cc1cc(Nc2nc(Nc3ccc4nccnc4c3N(C)S(C)(=O)=O)c3[nH]ccc3n2)c(OC(F)(F)F)cc1N1CCC(N2CCN(C)CC2)CC1 [II-1-23]
500 to 2500 nM	500 to 2500 nM	500 to 2500 nM	500 to 2500 nM	500 to 2500 nM	500 to 2500 nM	COc1cc(N2CCC(N3CCN(C)CC3)CC2)ccc1Nc1nc(Nc2ccc3nccnc3c2N(C)S(C)(=O)=O)c2occc2n1 [II-1-24]
50 to 500 nM	50 to 500 nM	50 to 500 nM	≤ 50 nM	50 to 500 nM	50 to 500 nM	COc1cc(N2CCC(N3CCN(C)CC3)CC2)c(C)cc1Nc1nc(Nc2ccc3nccnc3c2N(C)S(C)(=O)=O)c2occc2n1 [II-1-25]
50 to 500 nM	≤ 50 nM	≤ 50 nM	≤ 50 nM	50 to 500 nM	≤ 50 nM	CCc1cc(Nc2nc(Nc3ccc4nccnc4c3N(C)S(C)(=O)=O)c3occc3n2)c(OC)cc1N1CCC(N2CCN(C)CC2)CC1 [II-1-26]
500 to 2500 nM	500 to 2500 nM	500 to 2500 nM	500 to 2500 nM	500 to 2500 nM	500 to 2500 nM	COc1nc(N2CCC(N3CCN(C)CC3)CC2)ccc1Nc1nc(Nc2ccc3nccnc3c2N(C)S(C)(=O)=O)c2[nH]ccc2n1 [II-1-27]
500 to 2500 nM	500 to 2500 nM	500 to 2500 nM	500 to 2500 nM	500 to 2500 nM	500 to 2500 nM	COc1nc(N2CCC(N3CCN(C)CC3)CC2)c(C)cc1Nc1nc(Nc2ccc3nccnc3c2N(C)S(C)(=O)=O)c2[nH]ccc2n1 [II-1-28]
500 to 2500 nM	500 to 2500 nM	500 to 2500 nM	50 to 500 nM	500 to 2500 nM	500 to 2500 nM	CN1CCN(C2CCN(c3ccc(Nc4nc(Nc5ccc6nccnc6c5N(C)S(C)(=O)=O)c5[nH]ccc5n4)c(OC(F)(F)F)c3)CC2)CC1 [II-1-29]
500 to 2500 nM	500 to 2500 nM	500 to 2500 nM	50 to 500 nM	500 to 2500 nM	500 to 2500 nM	COc1cc(N2CCC(N(C)C)CC2)c(C)cc1Nc1nc(Nc2ccc3nccnc3c2N(C)S(C)(=O)=O)c2[nH]ccc2n1 [II-1-31]
500 to 2500 nM	50 to 500 nM	50 to 500 nM	50 to 500 nM	500 to 2500 nM	500 to 2500 nM	CCc1cc(Nc2nc(Nc3ccc4nccnc4c3N(C)S(C)(=O)=O)c3[nH]ccc3n2)c(OC)cc1N1CCC(N(C)C)CC1 [II-1-32]
500 to 2500 nM	500 to 2500 nM	500 to 2500 nM	500 to 2500 nM	500 to 2500 nM	500 to 2500 nM	COc1cc(N2CCN(C)CC2)c(C)cc1Nc1nc(Nc2ccc3nccnc3c2N(C)S(C)(=O)=O)c2[nH]ccc2n1 [II-1-33]
500 to 2500 nM	500 to 2500 nM	500 to 2500 nM	50 to 500 nM	500 to 2500 nM	50 to 500 nM	CCc1cc(Nc2nc(Nc3ccc4nccnc4c3N(C)S(C)(=O)=O)c3[nH]ccc3n2)c(OC)cc1N1CCN(C)CC1 [II-1-34]
500 to 2500 nM	500 to 2500 nM	500 to 2500 nM	500 to 2500 nM	500 to 2500 nM	500 to 2500 nM	COc1cc(N2CCC(N(C)C)C2)c(C)cc1Nc1nc(Nc2ccc3nccnc3c2N(C)S(C)(=O)=O)c2[nH]ccc2n1 (stereo not drawn) [II-1-35]
500 to 2500 nM	500 to 2500 nM	500 to 2500 nM	500 to 2500 nM	500 to 2500 nM	500 to 2500 nM	CCc1cc(Nc2nc(Nc3ccc4nccnc4c3N(C)S(C)(=O)=O)c3[nH]ccc3n2)c(OC)cc1N1CCC(N(C)C)C1 (stereo not drawn) [II-1-36]
500 to 2500 nM	50 to 500 nM	50 to 500 nM	≤ 50 nM	500 to 2500 nM	50 to 500 nM	CCc1cc(Nc2nc(Nc3ccc4nccnc4c3N(C)S(C)(=O)=O)c3occc3n2)c(OC)nc1N1CCC(N2CCN(C)CC2)CC1 [II-1-39]
500 to 2500 nM	500 to 2500 nM	500 to 2500 nM	500 to 2500 nM	500 to 2500 nM	50 to 500 nM	CN1CCN(C2CCN(c3ccc(Nc4nc(Nc5ccc6nccnc6c5N(C)S(C)(=O)=O)c5occc5n4)c(OC(F)(F)F)c3)CC2)CC1 [II-1-40]
500 to 2500 nM	500 to 2500 nM	50 to 500 nM	50 to 500 nM	50 to 500 nM	500 to 2500 nM	CCc1cc(Nc2nc(Nc3ccc4nccnc4c3N(C)S(C)(=O)=O)c3occc3n2)c(OC(F)(F)F)cc1N1CCC(N2CCN(C)CC2)CC1 [II-1-41]
50 to 500 nM	50 to 500 nM	50 to 500 nM	50 to 500 nM	50 to 500 nM	50 to 500 nM	C=Cc1cc(Nc2nc(Nc3ccc4nccnc4c3N(C)S(C)(=O)=O)c3occc3n2)c(OC(F)(F)F)cc1N1CCC(N2CCN(C)CC2)CC1 [II-1-42]
500 to 2500 nM	50 to 500 nM	50 to 500 nM	50 to 500 nM	50 to 500 nM	500 to 2500 nM	COc1cc(N2CCC(N3CCN(C)CC3)CC2)c(CC2CC2)cc1Nc1nc(Nc2ccc3nccnc3c2N(C)S(C)(=O)=O)c2occc2n1 [II-1-43]
500 to 2500 nM	500 to 2500 nM	500 to 2500 nM	500 to 2500 nM	500 to 2500 nM	50 to 500 nM	COc1cc(N2CCC(N3CCN(C)CC3)CC2)c(Cc2ccccc2)cc1Nc1nc(Nc2ccc3nccnc3c2N(C)S(C)(=O)=O)c2occc2n1 [II-1-44]
500 to 2500 nM	50 to 500 nM	50 to 500 nM	≤ 50 nM	50 to 500 nM	50 to 500 nM	COc1ccc(N2CCC(O)CC2)cc1Nc1nc(Nc2ccc3nccnc3c2N(C)S(C)(=O)=O)c2sccc2n1 [II-1-45]
500 to 2500 nM	500 to 2500 nM	500 to 2500 nM	50 to 500 nM	500 to 2500 nM	500 to 2500 nM	COc1cc(N2CCC(N3CCN(C)CC3)CC2)c(C)cc1Nc1nc(Nc2ccc3nccnc3c2N(C)S(C)(=O)=O)c2ccsc2n1 [II-2-1]
500 to 2500 nM	500 to 2500 nM	500 to 2500 nM	500 to 2500 nM	500 to 2500 nM	500 to 2500 nM	CCc1cc(Nc2nc(Nc3ccc4nccnc4c3N(C)S(C)(=O)=O)c3ccsc3n2)c(OC(F)(F)F)cc1N1CCC(N2CCN(C)CC2)CC1 [II-2-4]
